Values of other authors in US12521383B2 (Slayback Pharma LLC, priority 2022, dated 2026).

Conditions: in water, pH independent solubility profile

## COc1ccc(-n2nc(C(N)=O)c3c2C(=O)N(c2ccc(N4CCCCC4=O)cc2)CC3)cc1 [apixaban, 1-(4-methoxyphenyl)-7-oxo-6-[4-(2-oxopiperidin-1-yl)phenyl]-4,5-dihydropyrazolo [3,4-c] pyridine-3-carboxamide]
  aqueous solubility: 40 to 50 µg/mL
